According to patent publication US20260234153A1, “NON-COVALENT DIMER CATION OF PURINE/PYRIMIDINE AND AMINO ACID, SALT THEREOF, PREPARATION METHOD THEREFOR, AND USE THEREOF” (Suzhou Protonation Chain Biotechnology Co., Ltd, priority 2023, published 2026):

Legend:
[1] = test system: GES-1 human gastric mucosal epithelial cells; test: Ethanol induced damage model of gastric mucosal epithelial cells, cell viability; assay type: cell-based; details: GES1, GES-1 cells, 7% ethanol 12 h, then compound concentration 0.5 mg/mL, 24 h
Description: Chronic alcoholics are prone to gastric mucosal damage due to long-term alcohol damage.
The salts of example 51 and example 57 were taken as experimental compounds, and glycyrrhetinic acid was taken as a control compound. A blank control group (without ethanol) and a model group (with ethanol but without the salts of the examples or glycyrrhetinic acid) were set.
The cells were cultured in a complete RPMI 1640 medium for 6 h.
(§1) Then, the cell viability was detected.

[2] = test system: SH-SY5Y human neuroblastoma cells; test: Parkinson's disease cell model (6-OHDA), cell viability; assay type: cell-based; details: 24 h, read-out: Cell viability (%)
Source text: The salts of example 51 and examples 57 were taken as experimental compounds, and selegiline was taken as a control compound.
as §1

CC1(C)[C@@H](O)CC[C@]2(C)[C@H]3C(=O)C=C4[C@@H]5C[C@@](C)(C(=O)O)CC[C@]5(C)CC[C@@]4(C)[C@]3(C)CC[C@@H]12 [Glycyrrhetinic acid, glycyrrhetinic acid]
viability at 500 µg/mL [1]: 61.8%

C#CCN(C)[C@H](C)Cc1ccccc1 [Selegiline, selegiline]
viability at 500 µg/mL [2]: 37.5%
